Reference: ChEMBL document CHEMBL2046425, “Neamphamide B, new cyclic depsipeptide, as an anti-dormant mycobacterial substance from a Japanese marine sponge of Neamphius sp” (2012)
Converted amounts (≈) assume the structure as drawn.

Columns and labels:
[1] = test system: Mycolicibacterium smegmatis; test: Antimicrobial activity against Mycobacterium smegmatis under aerobic condition for 36 hrs by MTT assay; type: functional
[2] = test system: Mycolicibacterium smegmatis; test: Antimicrobial activity against Mycobacterium smegmatis under dormancy-inducing hypoxic condition for 96 hrs by MTT assay; type: functional

SMILES: COC(c1ccc(O)cc1)C1NC(=O)[C@H](CCC(N)=O)N(C)C(=O)[C@H](CC(C)C)NC(=O)[C@@H](CCCNC(=N)N)NC(=O)[C@@H]([C@@H](C)O)NC(=O)[C@H](NC(=O)C(NC(=O)[C@H](O)[C@H](O)[C@H](CCCNC(=N)N)NC(=O)[C@@H](CC(N)=O)NC(=O)C(C)C(O)C(C)CC(C)C)C(C)C(C)C(N)=O)[C@@H](C)OC(=O)[C@@H]2CCCCN2C1=O (some centres not stated) [NEAMPHAMIDE B]
- MIC [1]: 1.56 µg/mL (≈ 0.991 µM)
- MIC [2]: 1.56 µg/mL (≈ 0.991 µM)
